{"source": "patent US12378188B2", "about": "“Waterborne crosslinker composition” (priority 2020, dated 2025)", "key": {"Rtkn": {"test_system": "Rtkn", "assay": "ToxTracker genotoxicity assay, Rtkn GFP reporter", "conditions": "fold induction vs vehicle control"}, "[1]": {"assay": "Storage stability of the crosslinker dispersion (gelling / coagulation)", "conditions": "dispersion pH 11 with TEA, Maxemul 7101", "description": "Functional performance and stability of the crosslinker dispersion were assessed using spot tests on coating surfaces, based on procedures from the DIN 68861-1 standard, and viscosity measurements using a Brookfield DVE-LV viscometer (S62 spindle at 60 rpm unless mentioned otherwise). For these tests, the crosslinker dispersion was stored in an oven at 50° C. for 4 weeks. Every week, the viscosity of the crosslinker dispersion was determined. […] This coating composition was filtered and applied to Leneta test cards using 100 μm wire rod applicators (Test 1). For reference, films were also cast from the same composition lacking the crosslinker dispersion (Test Blank). The films were dried for 1 hour at 25° C., then annealed at 50° C. for 16 hours. Subsequently, a piece of cotton wool was soaked in 1:1 EtOH: demineralized water and placed on the film for 1 hour."}, "[2]": {"conditions": "described in U.S. Pat. No. 5,133,997; cited from earlier work"}}}
{"compound": "CCCCOCC(CN1CC1)OC(=O)NCCCCCCn1c(=O)n(CCCCCCNC(=O)OC(COCCCC)CN2CC2)c(=O)n(CCCCCCNC(=O)OC(COCCCC)CN2CC2)c1=O", "note": "(stereo not drawn) [Composition 1]", "values": [{"measurement": "Rtkn GFP reporter induction level", "setting": "Rtkn; With S9 rat liver extract, at 10% cytotoxicity, 3 h exposure and 24 h recovery", "value": 1.0}, {"measurement": "Rtkn GFP reporter induction level", "setting": "Rtkn; With S9 rat liver extract, at 25% cytotoxicity, 3 h exposure and 24 h recovery", "value": 1.1}, {"measurement": "Rtkn GFP reporter induction level", "setting": "Rtkn; With S9 rat liver extract, at 50% cytotoxicity, 3 h exposure and 24 h recovery", "value": 1.1}, {"measurement": "Rtkn GFP reporter induction level", "setting": "Rtkn; Without S9 rat liver extract, at 10% cytotoxicity, 24 h exposure", "value": 1.0}, {"measurement": "Rtkn GFP reporter induction level", "setting": "Rtkn; Without S9 rat liver extract, at 25% cytotoxicity, 24 h exposure", "value": 1.0}, {"measurement": "Rtkn GFP reporter induction level", "setting": "Rtkn; Without S9 rat liver extract, at 50% cytotoxicity, 24 h exposure", "value": 0.9}]}
{"compound": "O=C(NCCCCCCn1c(=O)n(CCCCCCNC(=O)OCCN2CC2)c(=O)n(CCCCCCNC(=O)OCCN2CC2)c1=O)OCCN1CC1", "note": "[Example C4]", "values": [{"measurement": "Storage stability of dispersion", "setting": "[1]", "value": "a storage stable dispersion was not obtained"}, {"measurement": "Time until severe coagulation was observed after preparation of the dispersion", "setting": "[1]", "value": "≤ 4", "unit": "h"}]}
{"compound": "O=C(CCN1CC1)OCC(CO)(COC(=O)CCN1CC1)COC(=O)CCN1CC1", "note": "[XAMA-7]", "values": [{"measurement": "Stability in water", "setting": "[2]", "value": "unstable in water"}]}
